The source of these data is ChEMBL document CHEMBL1128894, “Enzymatic cyclization of nicotinamide adenine dinucleotide phosphate (NADP)” (Bioorg Med Chem Lett, 1995).

This test is filed under the species Rattus norvegicus. The test is described as follows: Effective concentration for calcium mobilization (Ca 2+ release) in rat brain microsomes. It is filed as functional.
As to `N=c1c2ncn3c2ncn1[C@@H]1O[C@H](COP(=O)(O)OP(=O)(O)OC[C@H]2O[C@@H]3[C@H](OP(=O)(O)O)[C@@H]2O)[C@@H](O)[C@H]1O`, the EC50 came out at 9.2 µM.

For the compound `N=c1c2ncn3c2ncn1[C@@H]1O[C@H](COP(=O)(O)OP(=O)(O)OC[C@H]2OC3[C@H](O)[C@@H]2O)[C@@H](O)[C@H]1O`, the 50% effective concentration (EC50) was determined as 22 µM. For `O=P(O)(O)O[C@@H]1[C@H](O)[C@H](O)[C@@H](OP(=O)(O)O)[C@H](OP(=O)(O)O)[C@H]1O` [INS(1,4,5)P3] the value was 0.1 µM.
